As usually defined, the IC50 is the concentration at which inhibition is half-maximal.

The values below come from article PMC6273267 (Molecules, 2016).

Data set [1] addresses T1, AChE (E.C. 3.1.1.7) (Electrophorus electricus, UniProt O42275).
T1 construct: purchased Sigma-Aldrich (St. Louis, MO, USA)
As to the kind of experiment: biochemical. The settings on record: stated in the introduction, early efforts.

The target of data set [2] is T1, AChE (E.C. 3.1.1.7). As to the kind of experiment: biochemical. The settings on record: for Selectivity Index: Selectivity Index = IC50 (BuChE)/IC50 (AChE); for IC50: means ± SEM of three experiments, pH 8.0, 37 °C, 15 min incubation, read-out: AChE Inhibition (IC50). On the procedure: (§1) The inhibitory activity of the synthesized graveoline analogs on cholinesterase in vitro was studied using the Ellman method.
(§2) Stock solutions of all graveoline analogs (10 mM) were prepared using DMSO and stored at −80 °C. Further dilutions to working concentrations were made with double-distilled deionized water. AChE (E.C. 3.1.1.7, obtained from electric eel), BuChE (E.C. 3.1.1.8, obtained from equine serum), 5,5′-dithiobis-(2-nitrobenzoic acid) (Ellman’s reagent, DTNB), acetylthiocholine chloride (ATC), butylthiocholine chloride, thioflavin T, and tarcine hydrochloride were purchased from Sigma-Aldrich (St. Louis, MO, USA). Aβ42 was purchased from Millipore (Billerica, MA, USA). 3-(4,5-Dimethylthiazol-2-yl)-2,5-diphenyltetrazolium bromide (MTT) was purchased formal Aladdin (Shanghai, China). The SH-SY5Y cell line was obtained from the Animal experimental center of Sun Yat-sen University.
(§3) The solutions of the enzyme were prepared to achieve 2.0 units/mL in 2 mL aliquots. The experiment system contained phosphate buffer, pH 8.0 (1 mL), 50 μL of 0.01 M substrate (ATC), 50 μL of 0.01 M DTNB, and 10 μL of enzyme. The substrate was added into the experiment system containing the DTNB, buffer, and enzyme with inhibitors after 15 min of incubation. […] Calculations were conducted according to the assay of Ellman et al.. The in vitro BuChE assay was performed using the method described above.

The target of data set [3] is T2, BuChE (E.C. 3.1.1.8) (Equus caballus, UniProt P81908).
T2 construct: purchased Sigma-Aldrich (St. Louis, MO, USA); host or cells: equine serum
T2 sequence (P81908 whole entry): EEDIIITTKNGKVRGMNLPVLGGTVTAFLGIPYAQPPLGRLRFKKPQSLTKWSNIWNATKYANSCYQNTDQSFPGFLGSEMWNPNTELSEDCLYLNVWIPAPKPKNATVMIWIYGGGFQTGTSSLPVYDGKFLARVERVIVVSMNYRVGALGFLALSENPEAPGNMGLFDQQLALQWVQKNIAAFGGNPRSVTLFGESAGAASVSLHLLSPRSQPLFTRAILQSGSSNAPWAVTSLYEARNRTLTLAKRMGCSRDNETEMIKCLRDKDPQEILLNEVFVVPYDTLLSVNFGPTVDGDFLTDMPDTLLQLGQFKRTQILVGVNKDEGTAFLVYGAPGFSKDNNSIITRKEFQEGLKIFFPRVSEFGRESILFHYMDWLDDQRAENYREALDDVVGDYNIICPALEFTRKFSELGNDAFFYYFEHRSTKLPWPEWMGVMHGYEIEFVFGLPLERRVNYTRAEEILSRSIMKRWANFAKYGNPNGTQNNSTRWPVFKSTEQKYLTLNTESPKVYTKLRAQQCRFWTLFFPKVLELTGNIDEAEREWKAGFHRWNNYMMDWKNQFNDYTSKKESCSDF
Nature of the data set: biochemical. Conditions: means ± SEM of three experiments; pH 8.0, 37 °C, 15 min incubation; read-out: BuChE Inhibition (IC50). The procedure:
as §1, §2, §3

Data set [4] has as its system AChE-induced Aβ42 aggregation. As to the kind of experiment: Thioflavin T-based fluorometric assay of AChE-induced Aβ42 aggregation. It is filed as biochemical. Conditions: 5, 10, 20, 40 and 80 μM; 48 h at 37 °C; effect related to compound concentration. On the procedure:
To explore the combining effect of graveoline analogs on the AChE functional site PAS, compound 5c was chosen to study the inhibitory activity of AChE-induced Aβ aggregation using thioflavin T-based fluorometric assay. […] The inhibitory effect of 5c was related to the compound concentration. […]
Figure 4 Determination of 5c inhibition potency on AChE-induced amyloid-β (Aβ)42 aggregation.
The self-mediated Aβ42 aggregation was evaluated through the thioflavin-T fluorescence assay. A mixture of 230 μM Aβ42 peptide, 2.30 μM AChE (Aβ42/AChE molar ratio 100:1), and the indicated concentrations of compound 5c (5, 10, 20 ,40 and 80 μM) were added to the phosphate buffer (pH 7.40, 0.01 M). After co-incubated in 37 °C for 48 h, thioflavin-T (5 μM in 50 mM glycine-NaOH buffer, pH 8.00) was added. Fluorescence was monitored with excitation at 450 nm (λex) and 485 nm (λem) by the Spectrofluorimeter LS55. The fluorescence intensity values reached at the plateau (around 300 s) were recorded after subtracting the background fluorescence. The solutions containing Aβ42, and Aβ42 plus HuAChE was checked as control. Each experiment was run in triplicate.

The target in data set [5] is T3, AChE (Electrophorus electricus, UniProt O42275).
T3 construct: purchased Sigma-Aldrich (St. Louis, MO, USA)
T3 sequence (O42275 24-633): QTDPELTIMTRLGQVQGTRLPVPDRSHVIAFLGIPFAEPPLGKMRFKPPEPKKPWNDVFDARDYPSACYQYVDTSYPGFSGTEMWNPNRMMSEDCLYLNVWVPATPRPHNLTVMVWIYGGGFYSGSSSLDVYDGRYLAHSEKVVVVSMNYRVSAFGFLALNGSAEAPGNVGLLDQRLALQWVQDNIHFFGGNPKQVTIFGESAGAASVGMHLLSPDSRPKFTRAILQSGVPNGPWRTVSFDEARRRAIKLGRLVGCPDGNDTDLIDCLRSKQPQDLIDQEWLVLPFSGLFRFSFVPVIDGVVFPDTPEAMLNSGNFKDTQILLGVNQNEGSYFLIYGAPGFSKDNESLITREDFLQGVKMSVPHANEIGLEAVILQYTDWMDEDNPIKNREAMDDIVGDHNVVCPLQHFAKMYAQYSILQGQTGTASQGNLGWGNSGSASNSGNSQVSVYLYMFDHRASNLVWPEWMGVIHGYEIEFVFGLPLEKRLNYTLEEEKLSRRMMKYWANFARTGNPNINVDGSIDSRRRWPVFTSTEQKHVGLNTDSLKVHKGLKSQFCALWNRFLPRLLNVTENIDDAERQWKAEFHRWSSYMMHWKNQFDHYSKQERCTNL
As to the kind of experiment: Kinetic characterization of AChE inhibition (Lineweaver-Burk plot). The class given is biochemical, electric eel. Conditions: lines intersect in the second quadrant. On the procedure: When the small-molecule ligand was combined with the AChE active center (CAS), the type of inhibition of the enzyme was classified as competitive inhibition; by contrast, when the small-molecule ligand was acted on the PAS, the enzymatic inhibition was classified as non-competitive inhibition. […] This conclusion was verified by subsequent molecular docking experiments.
Figure 2 Lineweaver-Burk plot for the inhibition of AChE by 5c.
The kinetic characterization of AChE was performed using the reported method. Three concentrations ([…]) of the substrate were mixed in 1 mL 0.1 M KH2PO4/K2HPO4 buffer (pH 8.0) containing 10 μL AChE, 50 μL DTNB, and 50 μL substrate. The test compound was added into the assay solution and was pre-incubated with the AChE at 37 °C for 15 min followed by addition of the substrate. The kinetic characterization of the AChE-catalyzed ATC hydrolysis was performed spectrometrically at 412 nm. A parallel control with no inhibitor in the mixture allowed adjusting activities to be measured at various times.

Data set [6] relates to SH-SY5Y cells. Nature of the data set: Neurocyte toxicity test in vitro (MTT method). The class given is cell-based. The settings on record: 40 μM, 48 h. On the procedure: Thus, we used the methyl thiazolyl tetrazolium (MTT) method to perform a neurocyte (SH-SY5Y) toxicity test in vitro. […] However, cell viability was greatly influenced at 20 and 40 μM concentrations and the inhibition rates were more than 90%. […] However, compared with the cholinesterase activity at the nanomole level, this level of cytotoxicity is acceptable. […]
Figure 5 Inhibition for SH-SY5Y of compounds 4a–4c, 5a–5c, 6a–6b and curcumin at different concentrations.
The SH-SY5Y cell line was seeded on 96-well plates at a density of 1.0 × 10^4 cells/well. After overnight incubation, the cells were treated with various concentrations (0.1, 1, 20, and 40 μM) of graveoline derivatives for 48 h. Subsequently, 10 μL of 5 mg/mL MTT solution was added to each well and further incubated for 4 h at 37 °C. The solution was carefully removed, and each well was treated with dimethyl sulfoxide (DMSO) (200 μL for each well). The optical density of the wells was then read on the microplate reader at 490 nm. The parallel tests of all drug doses were performed in triplicate.
For orientation: Tetrazolium dyes change colour on reduction, which living cells bring about.

Where two headings read alike, the source gives them in different places.

T1 sequence (O42275 24-633): as above

`Cc1ccc(-c2cc(=O)c3ccccc3n2C)cc1` [Compound 2, 1-Methyl-2-p-tolylquinolin-4(1H)-one]: the concentration for half-maximal inhibition (IC50) in data set [1] was 3650 nM; in data set [2], 3650 ± 38 nM; in data set [3], 9306 ± 76 nM. Further, the “Selectivity Index” value in data set [2] came to 3.
Take `CN(C)CCNCc1ccc(-c2cc(=O)c3ccccc3n2C)cc1` [Compound 4a, 2-(4-((2-(Dimethylamino)ethylamino)methyl)phenyl)-1-methylquinolin-4(1H)-one]: in data set [2], the “Selectivity Index” value was determined as 45 and the IC50 is 78.5 ± 1.76 nM. The IC50 in data set [3] came out at 3520 ± 46 nM.
In the case of `Cn1c(-c2ccc(CNCCN3CCCC3)cc2)cc(=O)c2ccccc21` [Compound 4b, 1-Methyl-2-(4-((2-(pyrrolidin-1-yl)ethylamino)methyl)phenyl)quinolin-4(1H)-one], the results for the IC50 in data set [2] and in data set [3] were 10.2 ± 1.33 nM and 2470 ± 85 nM, respectively.
For the compound `Cn1c(-c2ccc(CNCCN3CCCCC3)cc2)cc(=O)c2ccccc21` [Compound 4c, 1-Methyl-2-(4-((2-(piperidin-1-yl)ethylamino)methyl)phenyl)quinolin-4(1H)-one], in data set [2], the “Selectivity Index” value came to 160 and the IC50 came out at 9.63 ± 0.76 nM. Besides, the half-inhibitory concentration (IC50) in data set [3] came out at 1540 ± 29 nM.
In the case of `CN(C)CCCNCc1ccc(-c2cc(=O)c3ccccc3n2C)cc1` [Compound 5a, 2-(4-((3-(Dimethylamino)propylamino)methyl)phenyl)-1-methylquinolin-4(1H)-one], in data set [2], the “Selectivity Index” value stood at 80 and the IC50 is 33.4 ± 0.78 nM. Further, the IC50 in data set [3] stood at 2680 ± 32 nM.
For the compound `Cn1c(-c2ccc(CNCCCN3CCCC3)cc2)cc(=O)c2ccccc21` [Compound 5b, 1-Methyl-2-(4-((3-(pyrrolidin-1-yl)propylamino)methyl)phenyl)quinolin-4(1H)-one], in data set [2], the “Selectivity Index” value turned out to be 291 and the concentration for half-maximal inhibition (IC50) amounted to 6.47 ± 0.15 nM. Besides, in data set [3], the 50% inhibitory concentration (IC50) is 1890 ± 54 nM.
Take `Cn1c(-c2ccc(CNCCCN3CCCCC3)cc2)cc(=O)c2ccccc21` [Compound 5c, 1-Methyl-2-(4-((3-(piperidin-1-yl)propylamino)methyl)phenyl)quinolin-4(1H)-one]: in data set [2], the “Selectivity Index” value stood at 486 and the concentration for half-maximal inhibition (IC50) was 2.36 ± 0.24 nM. Besides, the concentration for half-maximal inhibition (IC50) in data set [3] is 1150 ± 31 nM. The “inhibition of AChE-induced Aβ42 aggregation” value in data set [4] is “significantly inhibit”. Also, the “type of inhibition of AChE” value in data set [5] is given as “mixed inhibition”.
As for `CN(C)CCCCNCc1ccc(-c2cc(=O)c3ccccc3n2C)cc1` [Compound 6a, 2-(4-((4-(Dimethylamino)butylamino)methyl)phenyl)-1-methylquinolin-4(1H)-one], the “Selectivity Index” value in data set [2] came to 103. Moreover, the concentration for half-maximal inhibition (IC50) came to 35.5 ± 0.96 nM in data set [2] and 3670 ± 39 nM in data set [3].
For `Cn1c(-c2ccc(CNCCCCN3CCCC3)cc2)cc(=O)c2ccccc21` [Compound 6b, 1-Methyl-2-(4-((4-(pyrrolidin-1-yl)butylamino)methyl)phenyl)quinolin-4(1H)-one], in data set [2], the “Selectivity Index” value is given as 193 and the 50% inhibitory concentration (IC50) turned out to be 12.6 ± 0.57 nM. In data set [3], the IC50 is 2430 ± 49 nM.
`COc1cc(/C=C/C(=O)CC(=O)/C=C/c2ccc(O)c(OC)c2)ccc1O` [curcumin] gave a neurocyte inhibition rate in data set [6] of 57.3%.
